As a reminder, the IC50 is the concentration that inhibits the measured activity by half.

This is an account of results in patent publication US20040106626A1, “6-Membered unsaturated heterocyclic compounds useful for selective inhibition of the coagulation cascade” (Pharmacia Corporation, priority 2001, published 2004).

Where a name gives a salt, the structure may show the parent alone.

Assay type in all cases: biochemical
The target in one assay is T1, Human factor Xa (Homo sapiens, UniProt P00742).
T1 construct: purchased Enzyme Research Laboratories, South Bend Ind
T1 sequence (P00742 235-488 limits assumed): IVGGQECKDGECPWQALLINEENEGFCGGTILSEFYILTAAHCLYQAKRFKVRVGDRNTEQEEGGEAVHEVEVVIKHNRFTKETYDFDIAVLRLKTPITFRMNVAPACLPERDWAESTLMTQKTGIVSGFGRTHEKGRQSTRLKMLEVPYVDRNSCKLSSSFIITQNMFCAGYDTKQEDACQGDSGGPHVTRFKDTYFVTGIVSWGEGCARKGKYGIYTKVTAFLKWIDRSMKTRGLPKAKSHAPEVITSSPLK
T1 sequence (P00742 41-179 limits assumed): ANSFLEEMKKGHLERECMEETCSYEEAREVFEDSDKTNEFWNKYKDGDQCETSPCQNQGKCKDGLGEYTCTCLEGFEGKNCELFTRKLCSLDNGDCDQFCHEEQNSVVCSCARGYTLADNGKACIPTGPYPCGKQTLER
The experiment in a line: Xa assay (chromogenic substrate S-2765). The conditions noted are these: reported only as less than or greater than 30 uM; read-out: Factor Xa (II) IC50. Here is the method:
Human factor Xa (0.3 nM) and 0.15 mM -a-Benzyloxycarbonyl-D-arginyl-L-glycyl-L-arginine-p-nitroaniline-dihydrochloride (S-2765) are added to a 96-well assay plate containing either inhibitor or buffer (50 mM Tris-HCl, pH 8.0, 100 mM NaCl, 0.1% BSA). The reaction, in a final volume of 100 ul is measured immediately at 405 nm to determine background absorbance. The plate is incubated at room temperature for 60 min, at which time the rate of hydrolysis of the substrate is measured by monitoring the reaction at 405 nm for the release of p-nitroaniline. Percent inhibition of Xa activity is calculated from OD405 nm value from the experimental and control sample.
Recombinant soluble TF, consisting of amino acids 1-219 of the mature protein sequence was expressed in E. coli and purified using a Mono Q Sepharose FPLC. Recombinant human VIIa was purchased from American Diagnostica, Greenwich CT and chromogenic substrate N-methylsulfonyl-D-phe-gly-arg-p-nitroaniline was prepared by American Peptide Company, Inc., Sunnyvale, Calif. Factor Xa was obtained from Enzyme Research Laboratories, South Bend Ind., thrombin from Calbiochem, La Jolla, Calif., and trypsin and L-BAPNA from Sigma, St. Louis Mo. The chromogenic substrates S-2765 and S-2238 were purchased from Chromogenix, Sweden.

The target in assay [1] is T2, recombinant soluble tissue factor and recombinant human factor VIIa (TF-VIIa) (Homo sapiens, UniProt P08709).
T2 construct: conversion of coagulation factor VII to VIIa by factor Xa; purchased American Diagnostica, Greenwich CT; host or cells: soluble TF made in house in E. coli
T2 sequence (P08709 213-466 limits assumed): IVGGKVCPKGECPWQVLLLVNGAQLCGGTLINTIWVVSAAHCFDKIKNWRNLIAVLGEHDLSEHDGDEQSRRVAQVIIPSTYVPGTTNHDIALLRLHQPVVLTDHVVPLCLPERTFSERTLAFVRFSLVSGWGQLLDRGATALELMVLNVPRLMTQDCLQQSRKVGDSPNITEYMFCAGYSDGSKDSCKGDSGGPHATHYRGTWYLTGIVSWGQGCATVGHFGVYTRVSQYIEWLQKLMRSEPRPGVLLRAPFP
T2 sequence (P08709 61-212 limits assumed): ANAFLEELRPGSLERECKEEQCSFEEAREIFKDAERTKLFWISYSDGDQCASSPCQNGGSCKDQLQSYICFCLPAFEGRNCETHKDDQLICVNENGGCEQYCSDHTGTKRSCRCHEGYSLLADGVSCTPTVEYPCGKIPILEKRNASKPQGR
T2 sequence (P13726 33-251 partner limits assumed): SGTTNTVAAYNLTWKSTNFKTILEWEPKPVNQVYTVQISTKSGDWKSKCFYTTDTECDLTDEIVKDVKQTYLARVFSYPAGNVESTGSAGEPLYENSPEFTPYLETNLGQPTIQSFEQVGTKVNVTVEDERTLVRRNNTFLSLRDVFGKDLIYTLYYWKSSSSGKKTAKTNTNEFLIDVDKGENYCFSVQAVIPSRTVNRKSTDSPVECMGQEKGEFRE
The experiment in a line: TF-VIIa assay (chromogenic substrate hydrolysis). The note with it: reported only as less than or greater than 0.1 uM. Here is the method:
In this assay 100 nM recombinant soluble tissue factor and 2 nM recombinant human factor VIIa are added to a 96-well assay plate containing 0.4 mM of the substrate, N-methylsulfonyl-D-phe-gly-arg-p-nitroaniline and either inhibitor or buffer (5 mM CaCl2, 50 mM Tris-HCl, pH 8.0, 100 mM NaCl, 0.1% BSA). […] Percent inhibition of TF-VIIa activity is calculated from OD405 nm value from the experimental and control sample.
(§1) Recombinant human VIIa was purchased from American Diagnostica, Greenwich CT and chromogenic substrate N-methylsulfonyl-D-phe-gly-arg-p-nitroaniline was prepared by American Peptide Company, Inc., Sunnyvale, Calif. Factor Xa was obtained from Enzyme Research Laboratories, South Bend Ind., thrombin from Calbiochem, La Jolla, Calif., and trypsin and L-BAPNA from Sigma, St. Louis Mo.

The next assay concerns the target T3, Human thrombin (Homo sapiens, UniProt P00734).
T3 construct: converts prothrombin (II) to thrombin (IIa); purchased Calbiochem, La Jolla, Calif
Nature of the assay: Thrombin assay (chromogenic substrate). The note with it: reported only as less than or greater than 30 uM; read-out: Thrombin (II) IC50. Here is the method:
Percent inhibition of thrombin activity is calculated from OD405 nm value from the experimental and control sample.
as §1

On to `CC[C@H](C)NC(=O)c1cc(N)cc(-c2cnc(NC(C)C)c(=O)n2CC(=O)NCc2ccc(C(=N)N)c(O)c2F)c1` [Example 173], for which the IC50 at Human factor Xa is more than 30 µM; in assay [1], less than 0.1 µM; on Human thrombin, more than 30 µM.

As for `CC[C@@H](C)NC(=O)c1cc(N)cc(-c2cnc(NC3CC3)c(=O)n2CC(=O)NCc2ccc(C(=N)N)cc2)c1` [Example 258], the half-maximal inhibitory concentration (IC50) on Human factor Xa is more than 30 µM; in assay [1], less than 0.1 µM; on Human thrombin, less than 30 µM.

Turning to `CC(C)Nc1ncc(-c2cc(N)cc(C(=O)NCCN3CCOCC3)c2)n(CC(=O)NCc2ccc(C(=N)N)cc2)c1=O` [Example 40], the concentration for half-maximal inhibition (IC50) is more than 30 µM at Human factor Xa and less than 0.1 µM in assay [1].

As to `CC(C)Nc1ncc(-c2cc(N)cc(C(=O)NC(C)(C)c3ccccc3)c2)n(CC(=O)NCc2ccc(C(=N)N)cc2)c1=O` [Example 13], the figures for the half-maximal inhibitory concentration (IC50) (on Human factor Xa; in assay [1]; on Human thrombin) were more than 30 µM, less than 0.1 µM and less than 30 µM, respectively.

Regarding `CC(C)Nc1ncc(-c2cc(N)cc(OC(C)C(=O)O)c2)n(CC(=O)NCc2ccc(C(=N)N)cc2)c1=O` (stereo not drawn) [Example 226], the IC50 on Human factor Xa is more than 30 µM; in assay [1], less than 0.1 µM; on Human thrombin, more than 30 µM.

For `CCCCN(CCCC)c1cc(N)cc(-c2cnc(NC(C)C)c(=O)n2CC(=O)NCc2ccc(C(=N)N)cc2)c1` [Example 149], in assay [1], the half-inhibitory concentration (IC50) is more than 0.1 µM.

With `CC(C)Nc1ncc(-c2cc(N)cc(C(=O)NC(C)(C)CCO)c2)n(CC(=O)NCc2ccc(C(=N)N)cc2)c1=O` [Example 45], the IC50 is more than 30 µM at Human factor Xa and less than 0.1 µM in assay [1].

Turning to `COc1cc(N)cc(-c2cnc(NC(C)C)c(=O)n2CC(=O)NCc2cc(O)c(C(=N)N)c(F)c2)c1` [Example 168], the IC50 on Human factor Xa is more than 30 µM; in assay [1], more than 0.1 µM; at Human thrombin it was more than 30 µM.

In the case of `CC(C)Nc1ncc(-c2cc(N)cc(C(=O)NCC(=O)O)c2)n(CC(=O)NCc2ccc(C(=N)N)cc2)c1=O` [Example 32], the 50% inhibitory concentration (IC50) at Human factor Xa was more than 30 µM; in assay [1], more than 0.1 µM; at Human thrombin, more than 30 µM.

In the case of `CC(C)Nc1ncc(-c2cc(N)cc(C(=O)NCCO)c2)n(CC(=O)NCc2ccc(C(=N)N)cc2)c1=O` [Example 30], the IC50 is more than 30 µM on Human factor Xa, more than 0.1 µM in assay [1] and more than 30 µM at Human thrombin.

With `CC(C)Nc1ccc(-c2cc(N)cc(N)c2)n(CC(=O)NCc2ccc(C(=N)N)cc2)c1=O` [Example 163], the IC50 in assay [1] is more than 0.1 µM.

`COC(=O)c1cc(N)cc(-c2cnc(NC(C)C)c(=O)n2CC(=O)NCc2ccc(C(=N)N)cc2)c1` [Example 21, Methyl 3-amino-5-[1-[2-({4-[amino(imino)methyl]benzyl}amino)-2-oxoethyl]-5-(isopropylamino)-6-oxo-1,6-dihydropyrazin-2-yl]benzoate Trifluoroacetate]: the IC50 on Human factor Xa is more than 30 µM; in assay [1], less than 0.1 µM; at Human thrombin it was more than 30 µM.

For `CC[C@H](C)NC(=O)c1cc(N)cc(-c2cnc(NC(C)C)c(=O)n2CC(=O)NCc2c(OC)cc(C(=N)N)cc2OC)c1` [Example 196], the results for the half-inhibitory concentration (IC50) (on Human factor Xa; in assay [1]; on Human thrombin) were more than 30 µM, more than 0.1 µM and more than 30 µM, respectively.

With `COCCNC(=O)c1cc(N)cc(-c2cnc(NC(C)C)c(=O)n2CC(=O)NCc2ccc(C(=N)N)cc2)c1` [Example 26, 3-amino-5-[1-[2-({4-[amino(imino)methyl]benzyl}amino)-2-oxoethyl]-5-(isopropylamino)-6-oxo-1,6-dihydropyrazin-2-yl]-N-(2-methoxyethyl)benzamide], the IC50 at Human factor Xa is more than 30 µM; in assay [1], less than 0.1 µM; at Human thrombin, more than 30 µM.

Turning to `CNC(=O)c1cc(N)cc(-c2cnc(NC(C)C)c(=O)n2CC(=O)NCc2ccc(C(=N)N)cc2)c1` [Example 38], the IC50 at Human factor Xa is more than 30 µM; in assay [1], less than 0.1 µM.

For `CC(C)Nc1ncc(-c2cc(N)cc(C(=O)NC[Si](C)(C)C)c2)n(CC(=O)NCc2ccc(C(=N)N)cc2)c1=O` [Example 12], the 50% inhibitory concentration (IC50) at Human factor Xa is more than 30 µM; in assay [1], less than 0.1 µM; at Human thrombin, more than 30 µM.

For `CC(C)NC(=O)c1cc(N)cc(-c2cnc(NC(C)C)c(=O)n2CC(=O)NCc2ccc(C(=N)N)cc2)c1` [Example 60], the values for the concentration for half-maximal inhibition (IC50) (at Human factor Xa; in assay [1]; at Human thrombin) were more than 30 µM, less than 0.1 µM and less than 30 µM, respectively.

Consider `CC[C@H](C)NC(=O)c1cc(N)cc(-c2cnc(NC)c(=O)n2CC(=O)NCc2ccc(C(=N)N)cc2)c1` [Example 257], for which the IC50 on Human factor Xa was more than 30 µM; in assay [1] it was less than 0.1 µM; at Human thrombin, more than 30 µM.

Turning to `CC(C)Nc1ncc(-c2cc(N)cc(NC(=O)C3CCCNC3)c2)n(CC(=O)NCc2ccc(C(=N)N)cc2)c1=O` (stereo not drawn) [Example 151], in assay [1], the IC50 was less than 0.1 µM.

Turning to `CC[C@H](C)NC(=O)c1cc(N)cc(-c2cnc(N[C@@H](C)CO)c(=O)n2CC(=O)NCc2ccc(C(=N)N)cc2)c1` [Example 208], the 50% inhibitory concentration (IC50) on Human factor Xa is more than 30 µM; in assay [1] it was less than 0.1 µM; at Human thrombin it was less than 30 µM.

Regarding `CC(C)CNC(=O)c1cc(N)cc(-c2cnc(NC(C)C)c(=O)n2CC(=O)NCc2ccc(C(=N)N)cc2)c1` [Example 5], the values for the IC50 (at Human factor Xa; in assay [1]; at Human thrombin) were more than 30 µM, less than 0.1 µM and less than 30 µM, respectively.

Regarding `CC(C)Nc1ncc(-c2cc(N)cc(-c3ccccc3)c2)n(CC(=O)NCc2ccc(C(=N)N)cc2)c1=O` [Example 69, 2-[6-(5-amino-1,1′-biphenyl-3-yl)-3-(isopropylamino)-2-oxopyrazin-1 (2H)-yl]-N-{4-[amino(imino)methyl]benzyl}acetamide], the IC50 is more than 30 µM at Human factor Xa, less than 0.1 µM in assay [1] and more than 30 µM on Human thrombin.

For `COC(=O)c1cc(N)cc(-c2cnc(NC(C)C)c(=O)n2CC(=O)NCc2c(F)c(F)c(C(=N)N)c(F)c2F)c1` [Example 48], the results for the IC50 (on Human factor Xa; in assay [1]; at Human thrombin) were more than 30 µM, more than 0.1 µM and more than 30 µM, respectively.

Turning to `CC[C@@H](C)NC(=O)c1cc(N)cc(-c2cnc(N[C@@H](C)CO)c(=O)n2CC(=O)NCc2ccc(C(=N)N)cc2)c1` [Example 248], the half-maximal inhibitory concentration (IC50) in assay [1] was less than 0.1 µM; on Human thrombin, less than 30 µM.

As to `COCCNC(=O)c1cc(N)cc(-c2cnc(NC(C)C)c(=O)n2CC(=O)NCc2ccc(C(=N)N)cc2)c1` [Example 39], the IC50 is more than 30 µM on Human factor Xa and less than 0.1 µM in assay [1].

For `CC(C)Nc1ncc(-c2cc(N)cc(NC(=O)C3CCNCC3)c2)n(CC(=O)NCc2ccc(C(=N)N)cc2)c1=O` [Example 150], in assay [1], the IC50 is less than 0.1 µM.

In the case of `CC[C@@H](C)NC(=O)c1cc(N)cc(-c2cnc(NC(C)C)c(=O)n2CC(=O)NCc2c(O)cc(C(=N)N)cc2OCC(=O)O)c1` [Example 244], the IC50 is more than 0.1 µM in assay [1] and more than 30 µM on Human thrombin.

Consider `N=C(N)c1c(O)c(F)c(CNC(=O)Cn2c(-c3cc(N)cc(C(F)(F)F)c3)cnc(NC3CC3)c2=O)c(F)c1F` [Example 243], for which the IC50 was more than 0.1 µM in assay [1] and more than 30 µM at Human thrombin.

For `CCOC(=O)c1cc(N)cc(-c2cnc(NC(C)C)c(=O)n2CC(=O)NCc2ccc(C(=N)N)cc2)c1` [Example 44], the results for the IC50 (at Human factor Xa; in assay [1]) were more than 30 µM and less than 0.1 µM, respectively.

For `CC[C@@H](C)NC(=O)c1cc(N)cc(-c2cnc(NC(C)C)c(=O)n2CC(=O)NCc2c(O)cc(C(=N)N)cc2OCc2cccnc2)c1` [Example 255], the IC50 in assay [1] is more than 0.1 µM; on Human thrombin it was more than 30 µM.

Regarding `CONC(=O)c1cc(N)cc(-c2cnc(NC(C)C)c(=O)n2CC(=O)NCc2ccc(C(=N)N)cc2)c1` [Example 42], the IC50 on Human factor Xa was more than 30 µM; in assay [1] it was less than 0.1 µM.

In the case of `CC(C)Nc1ncc(-c2cc(N)cc(C(N)=O)c2)n(CC(=O)NCc2ccc(C(=N)N)cc2)c1=O` [Example 47], the figures for the IC50 (at Human factor Xa; in assay [1]) were more than 30 µM and less than 0.1 µM, respectively.

On to `CC(C)Nc1ncc(-c2cc(N)cc(C(=O)NCCN3CCCC3)c2)n(CC(=O)NCc2ccc(C(=N)N)cc2)c1=O` [Example 41], for which the IC50 was more than 30 µM on Human factor Xa and less than 0.1 µM in assay [1].

As for `CC(C)Nc1ncc(-c2cc(N)cc(C(=O)NC(C)(CO)CO)c2)n(CC(=O)NCc2ccc(C(=N)N)cc2)c1=O` [Example 43], the IC50 on Human factor Xa is more than 30 µM; in assay [1], less than 0.1 µM.
